Read-outs that look alike come from different tables or passages of the source.
What was measured:
DP BB rats = conditions: group B, Pleconaril alone 100 mg/kg BW once daily for 30 days, previously reported (Niklasson et al., 2016), control 59 (7), cited from earlier work
Ljungan-like virus = experiment: Immunohistochemistry for LV VP1 antigen in pancreas tissue of treated DP-BB rats (Example 1); assay type: in vivo, rat; conditions: for Non-infected (number of animals, viral antigen in pancreas by IHC) / Infected (number of animals, viral antigen in pancreas by IHC): Pleconaril 100 mg/kg, Efavirenz 30 mg/kg daily from 45 to 60 days of age; for Non-infected (number of animals, viral antigen in pancreas by IHC): control 0 of 9 non-infected; for Infected (number of animals, viral antigen in pancreas by IHC): control 9 of 9 infected; for effect on clearing the infection (in words): pancreas tissue following treatment
Description: DP-BB rats were obtained from the breeding colony maintained at the Karolinska Institute (Solna, Sweden). The animals were housed under Specific Pathogen Free conditions in a temperature- and humidity-controlled room with 12 hour light dark cycles. They were fed R36 diet and water ad libitum. Animals of both genders were used. The overall incidence of diabetes among the DP rats used in the colony study is 100% with 60 days as the mean age of onset.
Antiviral agents (pleconaril and efavirenz) were administered to the animals in a dose of 100 mg/kg and 30 mg/kg body weight for Pleconaril and Efavirenz, respectively. Treatment was given daily using formulation containing the vehicle 0.4% (v/v) Tween 80+2% (v/v) glycerol+15% (w/v) Hydroxypropyl-beta-cyclodextrin.
Four experimental treatment groups consisted of six rats given pleconaril, six given Efavirenz, eight given a combination of both compounds, and nine given the vehicle solution and serving as a control. All four groups began treatment at 45 days of age and treatment was maintained until 60 days of age when animals were sacrificed.
Formalin fixed paraffin embedded pancreas tissue were analyzed by immunohistochemistry. The tissues were fixed in 4% formalin and embedded in paraffin as described previously with minor modifications (Shi et al., 1991), (Shi, 1997). Presence of LV specific antigen was visualized using a polyclonal recombinant LV VP1 raised in rabbits (Tolf, 2008). As control we used serum from a rabbit immunized using the same protocol but with the carrier GST protein only. Tissues from LV-infected and non-infected animals were included as controls. The specificity of the rabbit antibodies were verified by analyzing control specimens generated by mixing infected tissue culture cells with non-infected cells followed by formalin fixation and paraffin imbedding. The specificity of the reaction was also confirmed by blocking the signal with LV antigen in parallel with control antigen.
Pancreas tissue was also analysed using the PCR assay described by Donoso Mantke and co-workers (Donoso Mantke et al., 2007).

SMILES: Cc1cc(CCCOc2c(C)cc(-c3noc(C(F)(F)F)n3)cc2C)on1 [Pleconaril, 3-[3,5-dimethyl-4-[3-(3-methylisoxazol-5-yl)propoxy]phenyl]-5-(trifluoro-methyl)-1,2,4-oxadiazole]
- Mean diab onset day (SD) (DP BB rats; listed as Plec): 62 (8) day
- Mean diab onset day (SD) (DP BB rats): 62 (SD 8) day
- Non-infected (number of animals, viral antigen in pancreas by IHC) (Ljungan-like virus): 2
- Infected (number of animals, viral antigen in pancreas by IHC) (Ljungan-like virus): 4
- effect on clearing the infection (in words) (Ljungan-like virus): only a modest effect on clearing the infection

SMILES: O=C1Nc2ccc(Cl)cc2[C@@](C#CC2CC2)(C(F)(F)F)O1 [Efavirenz, (4S)-6-chloro-4-(2-cyclopropylethynyl)-4-(trifluoromethyl)-1H-3,1-benz-oxazin-2-one]
- Non-infected (number of animals, viral antigen in pancreas by IHC) (Ljungan-like virus): 0
- Infected (number of animals, viral antigen in pancreas by IHC) (Ljungan-like virus): 6
- effect on clearing the infection (in words) (Ljungan-like virus): essentially no effect

Reference: patent US20220273624A1, “NOVEL ANTIVIRAL THERAPIES” (NIKLOVIR AB, priority 2019, published 2022)
